Experiments:
[1] = system: HIV-1 virus (NL4.3 strain); experiment: MT-2 based antiviral assay (S8737E); assay type: cell-based; settings: Human immunodeficiency virus 1, 72 h, read-out: Antiviral Activity (S8737E, μM), HIV-1 NL4.3 replication in MT2 cells, 3 days, β-Gal readout in JC53BL cells
Text: MT-2 Based Antiviral Assay (S8737E)
This assay is designed to determine the effects of small molecules on the replication of HIV-1 in the lymphobastoid cell line, MT2, and is able to detect the antiviral effect of compounds acting at any stage of the HIV-1 replication cycle. The assay, along with its associated cytotoxicity assay, was described in detail in 2005 in a paper by Cao et al (Antimicrobial Agents and Chemotherapy 2005; 49(9), p 3833-3841).
MT2 cells are infected with the HIV-1 virus (NL4.3 strain; Adachi et al., Journal of Virology 1986) and transferred to assay plates containing serial dilutions of compounds to be tested. The assay plates are incubated for 3 days (MT2) to allow for several rounds of viral replication/infection to take place. At the end of this time, supernatant is transferred into new plates containing JC53BL cells.
JC53BL cells express CXCR4, CCR5 and CD4 receptors, and HIV-1-LTR-β-Gal. Under normal culture conditions undetectable levels of β-Galactosidase are expressed, but in the presence of HIV-1, the viral Tat protein is able to activate the HIV-1-LTR in the JC53BL cells resulting in the increased expression of the β-Gal enzyme. The expression can be measured using the ‘FluorAce β-Galactosidase reporter’ assay. The levels of β-Gal are directly proportional to the levels of Tat (up to a threshold) allowing virus quantification. Compounds that inhibit virus replication will give rise to a reduced signal and a dose-response curve for each compound can be generated. This is then used to determine the IC50 for each compound, a measure of the compound's potency.

[2] = target: T1, LEDGF-Integrase interaction (Human immunodeficiency virus type 1 group M subtype B, UniProt P12497); experiment: HTRF Interaction assay (S9118); set-up: species or system HIV; settings: His6-tagged integrase and MBP-LEDGF integrase binding domain
T1 construct: His6-tagged integrase (78 nM final concentration); purchased Prof; Zeger Debyser, Katholieke Universiteit Leuven (supplied by an academic laboratory, not a commercial vendor)
Text: • Adachi, A., Gendelman, H., Koenig, S., Folks, T., Wiley, R., Rabson, A. and Martin, M (1986) Production of acquired immunodeficency syndrome-associated retrovirus in human and nonhuman cells transfected with an infectious molecular clone, J. Virol., 59, 284-291. • Cao J, Isaacson J, Patick A K, Blair W S. (2005) High-throughput human immunodeficiency virus type 1 (HIV-1) full replication assay that includes HIV-1 Vif as an antiviral target Antimicrobial Agents and Chemotherapy; 49(9), p 3833-3841. Assay to Measure the LEDGF-Integrase Integration Inhibitory Activity of Compounds of the Invention HTRF Interaction Assay (S9118)
An Homogeneous Time Resolved Fluorescence (HTRF) assay is performed in a manner similar to previous reports on HTRF protein assays as reviewed by Mathis (Clin. Chem., 2005). The assay procedure is performed as follows: reactions are performed in 20 μl final volume in 384-well black low volume microtiter plates (Greiner). The final reaction buffer contains 29 mM phosphase buffer (pH 7), 10 mM HEPES buffet (pH 7.4), 68.5 mM NaCl, 1.4 mM KCl, 400 mM KF 0.05% (w/v) pluronic acid (P104, Sigma Aldrich) and 1% (v/v) DMSO. His6-tagged integrase (78 nM final concentration) is incubated with […] fused to the Δ325 carboxy terminal integrase binding domain of LEDGF in the presence of compound for 2 hours at room temperature. Both these protein regents are supplied by Prof. Zeger Debyser of Katholleke Universiteit Leuven, Leuven, Belgium. The compounds are added at varying concentrations spanning a wide range from 0.1 up to 100 μM. Afterwards 8.3 nM of europium cryptate conjugated anti-MBP monoclonal antibody and 17 nM anti-His antibody conjugated with the acceptor fluorophore d2. Following a 2 hour room temperature incubation the plates are read on an EnVision™ microplate reader (Perkin Elmer) using an excitation wavelength of 320 nm. The ratio of fluorescence emitted at […] is used to assess the degree to which the protein-protein interaction had been inhibited.

| Compound | IC50 [1] [µM] | IC50 [2] [nM] |
| --- | --- | --- |
| Cc1nc2sc3c(c2c(-c2ccc(Cl)cc2F)c1[C@H](OC(C)(C)C)C(=O)O)CCCC3 [Example 45, (2S)-tert-butoxy[4-(4-chloro-2-fluorophenyl)-2-methyl-5,6,7,8-tetrahydro[1]benzothieno[2,3-b]pyridin-3-yl]acetic acid] | 0.023 | 565 |
| Cc1ccc(-c2c([C@H](OC(C)(C)C)C(=O)O)c(C)nc3sc4c(c23)CCCC4)c(F)c1 [Example 47, (2S)-tert-butoxy[4-(2-fluoro-4-methylphenyl)-2-methyl-5,6,7,8-tetrahydro[1]benzothieno[2,3-b]pyridin-3-yl]acetic acid] | 0.071 | 657 |
| Cc1nc2sc3c(c2c(-c2ccc(C(F)F)cc2)c1[C@H](OC(C)(C)C)C(=O)O)CCCC3 [Example 49] | 0.081 | 11000 |
| Cc1nc2sc3c(c2c(-c2ccc(C(F)(F)F)cc2)c1[C@H](OC(C)(C)C)C(=O)O)CCCC3 [Example 50, (S)-2-(tert-butoxy)-2-(2-methyl-4-(4-(trifluoromethyl)phenyl)-5,6,7,8-tetrahydrobenzo[4.5]thieno[2,3-b]pyridin-3-yl)acetic acid] | 0.055 | 1500 |
| Cc1nc2sc3c(c2c(-c2ccc(Br)cc2)c1[C@H](OC(C)(C)C)C(=O)O)CCCC3 [Example 51, (S)-2-(4-(4-bromophenyl)-2-methyl-5,6,7,8-tetrahydrobenzo[4,5]thieno[2,3-b]pyridin-3-yl)-2-(tert-butoxy)acetic acid] | 0.08 | 1160 |
| Cc1ccc(-c2c(C(OC(C)(C)C)C(=O)O)c(C)nc3sc4c(c23)CCOC4)cc1 (stereo not drawn) [Example 52, Tert-Butoxy-(2-methy-4-p-tolyl-5,8-dihydro-6H-7-oxa-9-thia-1-aza-fluoren-3-yl)-acetic acid] | 0.189 | 2750 |

Source: US9447116B2, “Inhibitors of HIV replication” (priority 2010, dated 2016)
